Data from ChEMBL document CHEMBL3044874, “Synthesis and characterization of some heterocyclic schiff bases: potential anticonvulsant agents” (Med Chem Res, 2011).
Calls of active or inactive are those of the source. The calls are words filed in the database; no cut-off is given here.

Legend:
[1] = Neurotoxicity against ip dosed Mus musculus Swiss albino (mouse) by rota rod test; format: toxicity, organism-based; conditions: in vivo
Mus musculus [2] = assay: Anticonvulsant activity in Mus musculus Swiss albino (mouse) assessed as protection against strychnine-induced seizure at 300 mg/kg, ip measured at 4 hr; format: functional, organism-based; parameters: dose 300 mg/kg
Mus musculus [3] = assay: Neurotoxicity against Mus musculus Swiss albino (mouse) at 300 mg/kg, ip measured at 4 hr by rota rod test; format: toxicity, organism-based; parameters: dose 300 mg/kg, route intraperitoneal; conditions: in vivo
Mus musculus [4] = assay: Anticonvulsant activity in Mus musculus Swiss albino (mouse) assessed as protection against maximal electroshock-induced seizure at 300 mg/kg, ip; format: functional, organism-based; parameters: dose 300 mg/kg
Mus musculus [5] = assay: Anticonvulsant activity in ip dosed Mus musculus Swiss albino (mouse) assessed as protection against pentylenetetrazole-induced seizure at 0.5 hr; format: functional; conditions: read-out: MED
Mus musculus [6] = assay: Anticonvulsant activity in ip dosed Mus musculus Swiss albino (mouse) assessed as protection against pentylenetetrazole-induced seizure; format: functional
Mus musculus [7] = assay: Anticonvulsant activity in Mus musculus Swiss albino (mouse) assessed as protection against strychnine-induced seizure at 300 mg/kg, ip; format: functional, organism-based; parameters: dose 300 mg/kg
Mus musculus [8] = assay: Neurotoxicity against ip dosed Mus musculus Swiss albino (mouse) at 0.5 hr by rota rod test; format: toxicity, organism-based; conditions: in vivo
Mus musculus [9] = assay: Anticonvulsant activity in Mus musculus Swiss albino (mouse) assessed as protection against strychnine-induced seizure at 300 mg/kg, ip measured at 0.5 hr; format: functional, organism-based; parameters: dose 300 mg/kg
Mus musculus [10] = assay: Anticonvulsant activity in Mus musculus Swiss albino (mouse) assessed as protection against maximal electroshock-induced seizure at 300 mg/kg, ip measured at 0.5 hr; format: functional, organism-based; parameters: dose 300 mg/kg
[11] = Protection index, ratio TD50 for neurotoxicity to ED50 for protection against maximal electroshock-induced seizure in Mus musculus Swiss albino (mouse); format: toxicity, organism-based; conditions: in vivo, read-out: Ratio TD50/ED50
Mus musculus [12] = assay: Anticonvulsant activity in Mus musculus Swiss albino (mouse) assessed as protection against maximal electroshock-induced seizure at 300 mg/kg, ip measured at 4 hr; format: functional, organism-based; parameters: dose 300 mg/kg
Mus musculus [13] = assay: Anticonvulsant activity in ip dosed Mus musculus Swiss albino (mouse) assessed as protection against pentylenetetrazole-induced seizure at 4 hr; format: functional; conditions: read-out: MED
Mus musculus [14] = assay: Neurotoxicity against ip dosed Mus musculus Swiss albino (mouse) at 4 hr by rota rod test; format: toxicity, organism-based; conditions: in vivo
Mus musculus [15] = assay: Anticonvulsant activity in ip dosed Mus musculus Swiss albino (mouse) assessed as protection against strychnine-induced seizure at 0.5 hr; format: functional; conditions: read-out: MED
Mus musculus [16] = assay: Anticonvulsant activity in ip dosed Mus musculus Swiss albino (mouse) assessed as protection against maximal electroshock-induced seizure at 0.5 hr; format: functional; conditions: read-out: MED
Mus musculus [17] = assay: Anticonvulsant activity in ip dosed Mus musculus Swiss albino (mouse) assessed as protection against strychnine-induced seizure at 4 hr; format: functional; conditions: read-out: MED
Rattus norvegicus [18] = assay: Anticonvulsant activity in Rattus norvegicus Wistar (rat) assessed as protection against maximal electroshock-induced seizure at 30 mg/kg, po measured at 0.5 hr; format: functional, organism-based; parameters: dose 30 mg/kg
Mus musculus [19] = assay: Anticonvulsant activity in ip dosed Mus musculus Swiss albino (mouse) assessed as protection against strychnine-induced seizure; format: functional
Rattus norvegicus [20] = assay: Anticonvulsant activity in Rattus norvegicus Wistar (rat) assessed as protection against maximal electroshock-induced seizure at 30 mg/kg, po measured at 4 hr; format: functional, organism-based; parameters: dose 30 mg/kg
Mus musculus [21] = assay: Anticonvulsant activity in Mus musculus Swiss albino (mouse) assessed as protection against pentylenetetrazole-induced seizure at 300 mg/kg, ip measured at 0.5 hr; format: functional, organism-based; parameters: dose 300 mg/kg
Mus musculus [22] = assay: Anticonvulsant activity in Mus musculus Swiss albino (mouse) assessed as protection against pentylenetetrazole-induced seizure at 300 mg/kg, ip measured at 4 hr; format: functional, organism-based; parameters: dose 300 mg/kg
Rattus norvegicus [23] = assay: Anticonvulsant activity in Rattus norvegicus Wistar (rat) assessed as protection against maximal electroshock-induced seizure at 30 mg/kg, po measured at 1 hr; format: functional, organism-based; parameters: dose 30 mg/kg
Rattus norvegicus [24] = assay: Anticonvulsant activity in Rattus norvegicus Wistar (rat) assessed as protection against maximal electroshock-induced seizure at 30 mg/kg, po measured at 2 hr; format: functional, organism-based; parameters: dose 30 mg/kg
Mus musculus [25] = assay: Neurotoxicity against Mus musculus Swiss albino (mouse) at 300 mg/kg, ip measured at 0.5 hr by rota rod test; format: toxicity, organism-based; parameters: dose 300 mg/kg, route intraperitoneal; conditions: in vivo
Mus musculus [26] = assay: Anticonvulsant activity in ip dosed Mus musculus Swiss albino (mouse) assessed as protection against maximal electroshock-induced seizure; format: functional
Mus musculus [27] = assay: Anticonvulsant activity in Mus musculus Swiss albino (mouse) assessed as protection against pentylenetetrazole-induced seizure at 300 mg/kg, ip; format: functional, organism-based; parameters: dose 300 mg/kg
Rattus norvegicus [28] = assay: Anticonvulsant activity in Rattus norvegicus Wistar (rat) assessed as protection against maximal electroshock-induced seizure at 30 mg/kg, po measured at 0.25 hr; format: functional, organism-based; parameters: dose 30 mg/kg
Mus musculus [29] = assay: Anticonvulsant activity in ip dosed Mus musculus Swiss albino (mouse) assessed as protection against maximal electroshock-induced seizure at 4 hr; format: functional; conditions: read-out: MED

CC12CCC(C/C1=N/Cc1cccnc1)C2(C)C (stereo not drawn)
TD50 [1]: 176 mg/kg
Activity (Mus musculus [2]): inactive
Activity (Mus musculus [3]): Non-toxic
Activity (Mus musculus [4]): inactive
minimal effective dose (Mus musculus [5]): 30 mg/kg
ED50 (Mus musculus [6]): 32.2 mg/kg
Activity (Mus musculus [7]): inactive
MTC (Mus musculus [8]): 300 mg/kg
Activity (Mus musculus [9]): inactive
Activity (Mus musculus [10]): inactive
selectivity ratio [11]: 5.45
Activity (Mus musculus [12]): inactive
minimal effective dose (Mus musculus [13]): 100 mg/kg

C(=N\Cc1cccnc1)/c1c[nH]c2ccccc12
TD50 [1]: > 500 mg/kg
MTC (Mus musculus [14]): 100 mg/kg
Activity (Mus musculus [4]): inactive
minimal effective dose (Mus musculus [5]): 30 mg/kg
ED50 (Mus musculus [6]): 6.47 mg/kg
Activity (Mus musculus [7]): inactive
MTC (Mus musculus [8]): 100 mg/kg
selectivity ratio [11]: > 10
Activity (Mus musculus [12]): inactive
minimal effective dose (Mus musculus [13]): 30 mg/kg
minimal effective dose (Mus musculus [15]): 300 mg/kg
minimal effective dose (Mus musculus [16]): 300 mg/kg
minimal effective dose (Mus musculus [17]): 100 mg/kg

COc1cc(/C=N/Cc2cccnc2)cc(OC)c1OC
TD50 [1]: > 500 mg/kg
Activity (Rattus norvegicus [18]): inactive
ED50 (Mus musculus [19]): 50.3 mg/kg
Activity (Rattus norvegicus [20]): Active
Activity (Mus musculus [21]): inactive
Activity (Mus musculus [3]): Non-toxic
Activity (Mus musculus [22]): inactive
Activity (Rattus norvegicus [23]): inactive
Activity (Rattus norvegicus [24]): Active
Activity (Mus musculus [25]): Non-toxic
selectivity ratio [11]: > 10
ED50 (Mus musculus [26]): 71.7 mg/kg
Activity (Mus musculus [27]): inactive
minimal effective dose (Mus musculus [15]): 100 mg/kg
minimal effective dose (Mus musculus [16]): 100 mg/kg
Activity (Rattus norvegicus [28]): inactive
minimal effective dose (Mus musculus [17]): 30 mg/kg
minimal effective dose (Mus musculus [29]): 100 mg/kg

COc1ccc(/C=N/Cc2cccnc2)cc1OC
TD50 [1]: > 500 mg/kg
Activity (Mus musculus [2]): inactive
Activity (Mus musculus [3]): Non-toxic
Activity (Mus musculus [4]): inactive
minimal effective dose (Mus musculus [5]): 30 mg/kg
ED50 (Mus musculus [6]): 11.7 mg/kg
Activity (Mus musculus [7]): inactive
Activity (Mus musculus [25]): Non-toxic
Activity (Mus musculus [9]): inactive
selectivity ratio [11]: > 10
Activity (Mus musculus [12]): inactive
minimal effective dose (Mus musculus [13]): 30 mg/kg
minimal effective dose (Mus musculus [16]): 300 mg/kg

O=[N+]([O-])c1ccc(/C=N/Cc2cccnc2)cc1
TD50 [1]: > 500 mg/kg
Activity (Rattus norvegicus [18]): inactive
ED50 (Mus musculus [19]): 22.2 mg/kg
Activity (Rattus norvegicus [20]): inactive
Activity (Mus musculus [3]): Non-toxic
minimal effective dose (Mus musculus [5]): 100 mg/kg
Activity (Rattus norvegicus [23]): inactive
Activity (Rattus norvegicus [24]): inactive
Activity (Mus musculus [25]): Non-toxic
selectivity ratio [11]: > 10
minimal effective dose (Mus musculus [13]): 300 mg/kg
ED50 (Mus musculus [26]): 61.4 mg/kg
Activity (Mus musculus [27]): inactive
minimal effective dose (Mus musculus [15]): 30 mg/kg
minimal effective dose (Mus musculus [16]): 100 mg/kg
Activity (Rattus norvegicus [28]): inactive
minimal effective dose (Mus musculus [17]): 100 mg/kg
minimal effective dose (Mus musculus [29]): 100 mg/kg

c1cncc(CN=C2CCCCC2)c1
TD50 [1]: > 500 mg/kg
Activity (Mus musculus [2]): inactive
Activity (Mus musculus [3]): Non-toxic
Activity (Mus musculus [4]): inactive
minimal effective dose (Mus musculus [5]): 30 mg/kg
ED50 (Mus musculus [6]): 14.2 mg/kg
Activity (Mus musculus [7]): inactive
Activity (Mus musculus [25]): Non-toxic
Activity (Mus musculus [9]): inactive
Activity (Mus musculus [10]): inactive
selectivity ratio [11]: > 10
Activity (Mus musculus [12]): inactive
minimal effective dose (Mus musculus [13]): 30 mg/kg
